Legend:
Type in all cases: cell-based
[1] = biological target: human CXCR3A (Homo sapiens (Human), UniProt P49682); assay: FLIPR assay (CXCL10-induced calcium signal); conditions: CHO-K1 cells expressing human CXCR3A coupled to Galpha(16); CXCL10 agonist 20 nM; mean values
Source text: (§1) In the case where IC50 values have been determined several times for the same compound, mean values are given.

[2] = biological target: CXCR3 (Homo sapiens (Human), UniProt P49682); assay: Receptor internalization assay in human whole blood (CXCR3 surface expression on CD4 positive cells, CXCL10); conditions: final CXCL10 9 nM, 30 min at 37° C., mean values
CXCR3, sequence (P49682 whole entry): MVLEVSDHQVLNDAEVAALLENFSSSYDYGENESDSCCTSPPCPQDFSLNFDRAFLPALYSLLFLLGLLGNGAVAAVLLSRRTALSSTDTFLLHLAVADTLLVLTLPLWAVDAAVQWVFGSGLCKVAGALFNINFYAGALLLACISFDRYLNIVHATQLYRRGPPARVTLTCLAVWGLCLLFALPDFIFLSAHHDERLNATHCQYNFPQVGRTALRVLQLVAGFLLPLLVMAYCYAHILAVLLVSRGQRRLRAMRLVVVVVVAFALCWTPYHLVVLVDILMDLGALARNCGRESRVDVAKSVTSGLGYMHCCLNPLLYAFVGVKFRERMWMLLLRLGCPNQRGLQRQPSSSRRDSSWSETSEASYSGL
Method: Diluted compounds are then mixed with an equal volume of CXCL10 (Peprotech) diluted in PBS. Anticoagulated venous human whole blood is added to the mixture, which is then incubated in a CO2 incubator at 37° C. to allow for ligand mediated receptor internalization (final CXCL10 concentration is 9 nM). After 30 min, the blood is mixed with fluorescently labeled CXCR3 and CD4 specific antibodies (Becton Dickinson) and incubated on ice for 10 minutes. Samples are then mixed with BD FACS Lysing Solution (Becton Dickinson) in order to eliminate red blood cells. After washing the cells with PBS containing 0.5% BSA, the samples are then analyzed in a flow cytometer (FACS Canto II, Becton Dickinson). For data analysis using FACSDiva software (Becton Dickinson), the mean fluorescence corresponding to CXCR3 cell surface expression was determined on CD4 positive cells. The program GraphPad Prism or similar software is used to fit the data to a single site dose response curve and to calculate IC50 values.
as §1

[3] = biological target: hERG K channel (Homo sapiens (Human), UniProt Q12809); assay: hERG Q-Patch assay; conditions: CHO cells expressing hERG, K+ tail current 3 min after application, mean of two or three experiments
hERG K channel, sequence (Q12809 whole entry): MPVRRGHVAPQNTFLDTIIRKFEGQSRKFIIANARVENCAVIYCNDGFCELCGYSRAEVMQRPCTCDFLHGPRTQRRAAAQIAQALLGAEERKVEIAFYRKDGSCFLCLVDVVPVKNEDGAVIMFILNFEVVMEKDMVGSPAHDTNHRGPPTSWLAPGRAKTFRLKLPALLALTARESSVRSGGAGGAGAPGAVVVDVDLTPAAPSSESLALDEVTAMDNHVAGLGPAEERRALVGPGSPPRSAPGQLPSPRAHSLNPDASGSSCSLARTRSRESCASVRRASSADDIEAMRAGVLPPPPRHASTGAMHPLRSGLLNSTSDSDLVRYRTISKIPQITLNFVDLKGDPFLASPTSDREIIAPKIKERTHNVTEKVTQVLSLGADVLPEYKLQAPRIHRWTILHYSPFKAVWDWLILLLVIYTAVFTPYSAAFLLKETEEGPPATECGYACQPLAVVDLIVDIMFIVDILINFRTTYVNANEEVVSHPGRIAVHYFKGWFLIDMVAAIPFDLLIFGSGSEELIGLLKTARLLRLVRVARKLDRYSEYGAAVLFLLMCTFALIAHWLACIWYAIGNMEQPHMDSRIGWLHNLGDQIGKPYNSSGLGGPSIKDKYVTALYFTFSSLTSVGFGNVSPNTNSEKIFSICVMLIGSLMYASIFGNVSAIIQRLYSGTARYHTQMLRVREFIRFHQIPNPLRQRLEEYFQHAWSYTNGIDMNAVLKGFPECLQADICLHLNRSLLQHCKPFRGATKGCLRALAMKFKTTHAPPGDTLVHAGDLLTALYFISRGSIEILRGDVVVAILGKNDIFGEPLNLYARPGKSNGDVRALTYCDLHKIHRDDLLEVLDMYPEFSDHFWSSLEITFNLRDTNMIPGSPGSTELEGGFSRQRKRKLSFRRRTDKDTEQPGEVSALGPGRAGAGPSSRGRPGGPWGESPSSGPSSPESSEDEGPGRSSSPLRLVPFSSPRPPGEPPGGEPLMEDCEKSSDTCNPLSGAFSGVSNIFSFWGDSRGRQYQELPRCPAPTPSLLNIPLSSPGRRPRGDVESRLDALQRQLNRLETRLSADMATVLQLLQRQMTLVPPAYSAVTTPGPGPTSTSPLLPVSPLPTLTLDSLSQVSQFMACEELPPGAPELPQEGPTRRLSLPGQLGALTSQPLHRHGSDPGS
Method: Compounds are evaluated for block of the hERG K channel using CHO cells stably expressing the hERG gene (accession number U04270, bSys, Witterswil, Switzerland) and the QPatch robotic platform (Sophion, Ballerup, Denmark) in single-cell mode at room temperature. Cells are grown in culture flasks at 37° C. in 5% CO2, in culture medium (Ham's F-12 Nutrient Mixture, Invitrogen 21765-029) supplemented with 9% (v/v) fetal calf serum, 0.9% Penicillin/Streptomycin (10,000 U/mL, Invitrogen 15140148), 100 μg/mL Hygromycin B (Invitrogen 10687010). When the cells are ˜80% confluent (every 2-3 days), they are either split for further culture or used for electrophysiology. For further culture, cells are detached with 0.25% Trypsin EDTA solution (Invitrogen 25200-056) and a fraction of the cells (10-30%) is reseeded in culture medium. For electrophysiology, on the experimental day, cells are detached with 0.25% Trypsin EDTA solution and all cells are suspended in suspension medium (293 SFM II, Invitrogen 11686-029) supplemented with 20 mM HEPES and 0.04 mg/mL Trypsin inhibitor. Cells are kept in suspension medium at 32-35° C. in the QPatch robot until use, at which time aliquots are transferred to the extracellular solution (in mM: NaCl 150; KCl 4; CaCl2 1.2; MgCl2 1; HEPES 10; pH 7.4 with NaOH) containing 0.3% v/v DMSO and applied to the test plates. K^+ currents are measured with the patch-voltage-clamp technique in the whole-cell configuration with the internal solution (in mM: KCl, 140; NaCl, 10; MgCl2, 1; HEPES, 10: EGTA, 5; pH=7.2 with KOH). Currents are low-pass filtered using the internal Bessel filter of the QPatch robot with a cut-off frequency of 2 kHz and are digitized at 10 kHz. K^+ tail currents are produced from a holding voltage of −80 mV by a 500-ms depolarization to +20 mV followed by a 500-ms repolarization to −40 mV; tail current amplitudes are measured at the end of the repolarization to −40 mV. The pulse pattern is repeated every 10 sec during the experiment, baseline K^+ current is measured after 3 min in extracellular solution, test-solution containing compound is then applied, and K^+ current in presence of compound is measured 3 minutes after application to the cells. The respective test-solution is prepared by (1) dissolving the test-compound in pure DMSO, (2) diluting this DMSO solution in extracellular solution, and (3) adding further DMSO, such that the final test-solution has a concentration of either 300 nM or 3000 nM of the test-compound and contains 0.3% v/v DMSO. Compound effects are quantified as % block by dividing the current in presence of compound by the baseline current; two or three experiments are performed for each compound and the final value represents the mean of the results of each experiment.

human CXCR3A, sequence (P49682 whole entry): as the sequence (P49682 whole entry) above

Row | IC50 [1] [nM] | IC50 [2] [nM] | Compound | % block ([3]; concentration 300 nM) [%] | % block ([3]; concentration 3000 nM) [%]
1 | 1.2 | 40.3 | CCc1ccn(CC(=O)N2CCN(c3sc(C(F)(F)F)nc3-c3cnc(C(F)(F)F)nc3)C[C@H]2CO)n1 [Example 43, 2-(3-Ethyl-pyrazol-1-yl)-1-{(S)-2-hydroxymethyl-4-[2-trifluoromethyl-4-(2-trifluoromethyl-pyrimidin-5-yl)-thiazol-5-yl]-piperazin-1-yl}-ethanone] | 5 | 25
2 | 5.9 | 1290 | COCc1ncn(CC(=O)N2CCN(c3sc(C(F)(F)F)nc3-c3cnc(C(F)(F)F)nc3)C[C@@H]2CO)n1 [Example 17, 1-{(R)-2-Hydroxymethyl-4-[2-trifluoromethyl-4-(2-trifluoromethyl-pyrimidin-5-yl)-thiazol-5-yl]-piperazin-1-yl}-2-(3-methoxymethyl-[1,2,4]triazol-1-yl)-ethanone] | 2 | 6
3 | 6.9 | 324 | Cc1nc(C)n(CC(=O)N2CCN(c3sc(C(F)(F)F)nc3-c3cnc(C(F)(F)F)nc3)C[C@@H]2CO)n1 [Example 12, 2-(3,5-Dimethyl-[1,2,4]triazol-1-yl)-1-{(R)-2-hydroxymethyl-4-[2-trifluoromethyl-4-(2-trifluoromethyl-pyrimidin-5-yl)-thiazol-5-yl]-piperazin-1-yl}-ethanone] | 1 | 3
4 | 6 | 463 | Cc1nc(C)n(CC(=O)N2CCN(c3sc(C(F)(F)F)nc3-c3cnc(C(F)(F)F)nc3)C[C@H]2CO)n1 [Example 2, 2-(3,5-Dimethyl-[1,2,4]triazol-1-yl)-1-{(S)-2-hydroxymethyl-4-[2-trifluoromethyl-4-(2-trifluoromethyl-pyrimidin-5-yl)-thiazol-5-yl]-piperazin-1-yl}-ethanone] | −3 | −4
5 | 10 | 3200 | Cc1nc(C)n(CC(=O)N2CCN(c3sc(C(F)(F)F)nc3-c3cnc(C4CC4)nc3)C[C@H]2CO)n1 [Example 8, 1-{(S)-4-[4-(2-Cyclopropyl-pyrimidin-5-yl)-2-trifluoromethyl-thiazol-5-yl]-2-hydroxymethyl-piperazin-1-yl}-2-(3,5-dimethyl-[1,2,4]triazol-1-yl)-ethanone] | 19 | 54
6 | 7.6 | 355 | CCc1nc(C)n(CC(=O)N2CCN(c3sc(C(F)(F)F)nc3-c3cnc(C(F)(F)F)nc3)C[C@@H]2CO)n1 [Example 24, 2-(3-ethyl-5-methyl-[1,2,4]triazol-1-yl)-1-{(R)-2-hydroxymethyl-4-[2-trifluoromethyl-4-(2-trifluoromethyl-pyrimidin-5-yl)-thiazol-5-yl]-piperazin-1-yl}-ethanone] |  | 
7 | 8.6 | 258 | O=C(Cn1cnc(C(F)F)n1)N1CCN(c2sc(C(F)(F)F)nc2-c2cnc(C(F)(F)F)nc2)C[C@@H]1CO [Example 38, 2-(3-Difluoromethyl-[1,2,4]triazol-1-yl)-1-{(R)-2-hydroxymethyl-4-[2-trifluoromethyl-4-(2-trifluoromethyl-pyrimidin-5-yl)-thiazol-5-yl]-piperazin-1-yl}-ethanone] |  | 
8 | 3.6 | 664 | CCc1nc(C)nn1CC(=O)N1CCN(c2sc(C(F)(F)F)nc2-c2cnc(C(F)(F)F)nc2)C[C@@H]1CO [Example 25, 2-(5-ethyl-3-methyl-[1,2,4]triazol-1-yl)-1-{(R)-2-hydroxymethyl-4-[2-trifluoromethyl-4-(2-trifluoromethyl-pyrimidin-5-yl)-thiazol-5-yl]-piperazin-1-yl}-ethanone] |  | 
9 | 4.3 | 737 | CC(O)c1ncn(CC(=O)N2CCN(c3sc(C(F)(F)F)nc3-c3cnc(C(F)(F)F)nc3)C[C@@H]2CO)n1 (stereo partly drawn) [Example 21, 2-[3-(1-Hydroxy-ethyl)-[1,2,4]triazol-1-yl]-1-{(R)-2-hydroxymethyl-4-[2-trifluoromethyl-4-(2-trifluoromethyl-pyrimidin-5-yl)-thiazol-5-yl]-piperazin-1-yl}-ethanone] |  | 

The next lines start with the molecule.

Row | Compound | IC50 [1] [nM] | IC50 [2] [nM] | % block ([3]; concentration 300 nM) [%] | % block ([3]; concentration 3000 nM) [%]
10 | CCOc1ncc(-c2nc(C(F)(F)F)sc2N2CCN(C(=O)Cn3cnc(C(F)(F)F)n3)[C@H](CO)C2)cn1 [Example 6, 1-{(S)-4-[4-(2-Ethoxy-pyrimidin-5-yl)-2-trifluoromethyl-thiazol-5-yl]-2-hydroxymethyl-piperazin-1-yl}-2-(3-trifluoromethyl-[1,2,4]triazol-1-yl)-ethanone] | 4.6 | 778 | 13 | 23
11 | Cc1ccn(CC(=O)N2CCN(c3sc(C(F)(F)F)nc3-c3cnc(C(F)(F)F)nc3)C[C@H]2CCO)n1 [Example 39, 1-{(R)-2-(2-Hydroxy-ethyl)-4-[2-trifluoromethyl-4-(2-trifluoromethyl-pyrimidin-5-yl)-thiazol-5-yl]-piperazin-1-yl}-2-(3-methyl-pyrazol-1-yl)-ethanone] | 1 | 46.3 | 1 | 32
12 | O=C(Cn1cnc(C(F)(F)F)n1)N1CCN(c2sc(C(F)(F)F)nc2-c2cnc(C3CC3)nc2)C[C@H]1CO [Example 9, 1-{(S)-4-[4-(2-Cyclopropyl-pyrimidin-5-yl)-2-trifluoromethyl-thiazol-5-yl]-2-hydroxymethyl-piperazin-1-yl}-2-(3-trifluoromethyl-[1,2,4]triazol-1-yl)-ethanone] | 1.3 | 1520 | 8 | 24
13 | O=C(Cn1cnc(C(F)(F)F)n1)N1CCN(c2sc(C(F)(F)F)nc2-c2cnc(C(F)(F)F)nc2)C[C@H]1CCO [Example 28, 1-{(R)-2-(2-Hydroxy-ethyl)-4-[2-trifluoromethyl-4-(2-trifluoromethyl-pyrimidin-5-yl)-thiazol-5-yl]-piperazin-1-yl}-2-(3-trifluoromethyl-[1,2,4]triazol-1-yl)-ethanone] | 1.1 | 214 | 6 | 40
14 | CC(C)c1ncn(CC(=O)N2CCN(c3sc(C(F)(F)F)nc3-c3cnc(C(F)(F)F)nc3)C[C@H]2CCO)n1 [Example 34, 1-{(R)-2-(2-Hydroxy-ethyl)-4-[2-trifluoromethyl-4-(2-trifluoromethyl-pyrimidin-5-yl)-thiazol-5-yl]-piperazin-1-yl}-2-(3-isopropyl-[1,2,4]triazol-1-yl)-ethanone] | 4.5 | 84.8 | 10 | 34
15 | O=C(Cn1cnc(-c2ccccn2)n1)N1CCN(c2sc(C(F)(F)F)nc2-c2cnc(C(F)(F)F)nc2)C[C@@H]1CO [Example 23, 1-{(R)-2-Hydroxymethyl-4-[2-trifluoromethyl-4-(2-trifluoromethyl-pyrimidin-5-yl)-thiazol-5-yl]-piperazin-1-yl}-2-(3-pyridin-2-yl-[1,2,4]triazol-1-yl)-ethanone] | 35 | 2730 |  | 
16 | O=C(Cn1cnc2cccnc21)N1CCN(c2sc(C(F)(F)F)nc2-c2cnc(C(F)(F)F)nc2)C[C@@H]1CO [Example 26, 1-{(R)-2-Hydroxymethyl-4-[2-trifluoromethyl-4-(2-trifluoromethyl-pyrimidin-5-yl)-thiazol-5-yl]-piperazin-1-yl}-2-imidazo[4,5-b]pyridin-3-yl-ethanone] | 3.5 | 74.2 |  | 

From patent US10053457B2, “Hydroxyalkyl-piperazine derivatives as CXCR3 receptor modulators” (IDORSIA PHARMACEUTICALS LTD, priority 2015, dated 2018)
